Data on 5 compounds can be found in patent US20100222304A1, “Methods of Treating Neuropathic Pain by Modulation of Glycogenolysis or Glycolysis” (priority 2006, published 2010).

The subject of data set [1] is human hepatocytes. As to conditions: human primary hepatocytes; read-out: EC50, inhibition of glucose production; cited from earlier work.
Data set [2] deals with Zucker diabetic fatty (ZDF) rats. As to conditions: cited from earlier work; for glucose tolerance: CS-917 300 mg/kg and/or glyburide 100 mg/kg orally, 90 min before 2 g/kg glucose, 3 h following; for insulin secretion: CS-917 300 mg/kg, glyburide 100 mg/kg orally.
A further data set has as its system ZDF rats. As to conditions: cited from earlier work.
For data set [3] the following is noted: one oral suspension dose 2.5 to 1000 mg after overnight fast; cited from earlier work.
A further data set deals with gluconeogenesis. The conditions noted are these: rat hepatocytes, isolated rat kidneys, whole animal studies; cited from earlier work.
For data set [4] the following is noted: oral capsules 100, 200, 400 or 800 mg, 14 days; cited from earlier work.
The subject of the next data set is cynomolgus monkeys. The conditions noted are these: cited from earlier work.
The subject of the next data set is Female ZDF rats. As to conditions: 100 mg/kg/day, 14 days; cited from earlier work.
A further data set deals with overnight fasted rats. The conditions noted are these: 2.5 to 40 mg/kg 1 h before liquid meal 20 kcal/kg; effect at doses over 10 mg/kg; cited from earlier work.
The next data set deals with goto-kakizaki (GK) rats. The conditions noted are these: cited from earlier work.
The conditions of data set [5]: cited from earlier work.
The test system of a further data set is patients. As to conditions: first 6 h after dosing on day 14, versus day before first dose; cited from earlier work.
In the next data set the test system is Tet/GSK-3-beta mice. The conditions noted are these: cited from earlier work; for tau phosphorylation in the hippocampus: oral, 3 weeks, NP-01139 50 to 100 mg/kg/day, NP-12 100 to 200 mg/kg/day; for clinical signs: prolonged oral treatment.
For data set [6] the following is noted: rats; cited from earlier work.
The next data set concerns ob/ob mice. The conditions noted are these: 30 mg/kg po, cited from earlier work.
In a further data set the test system is healthy conscious rats. As to conditions: glucagon 10 microg/kg iv; cited from earlier work.
For data set [7] the following is noted: single and multiple dose escalation; cited from earlier work.
Data set [8] has as its system human hepatocytes. The conditions noted are these: read-out: EC50, reduction of glucagon-induced glycogenolysis; cited from earlier work.
The subject of data set [9] is db/db mice. As to conditions: cited from earlier work.
A further data set concerns rat hepatocytes. The conditions noted are these: read-out: EC50, reduction of glucagon-induced glycogenolysis; cited from earlier work.
The subject of data set [10] is db/db mice. As to conditions: 60 mg/kg po qd, 9 days; cited from earlier work.
In a further data set the test system is Male Sprague-Dawley rats. The data set can be described thus: Mechanical allodynia induced by spinal nerve ligation (SNL) in rats. The class given is in vivo, rat. The conditions noted are these: 30 mg/kg PO, post-SNL day 19, p<0.01 vs. vehicle. The procedure:
Male Sprague-Dawley rats (Hsd:Sprague-Dawley®SD®, Harlan, Indianapolis, Ind., U.S.A.) weighing 223±2 g on Day 14 were housed three per cage. Animals had free access to food and water and were maintained on a 12:12 h light/dark schedule for the entire duration of the study. The animal colony was maintained at 21° C. and 60% humidity. All experiments were conducted in accordance with the International Association for the Study of Pain guidelines and were approved by the University of Minnesota Animal Care and Use Committee.
The Spinal Nerve Ligation (SNL) model was used to induce chronic neuropathic pain. […]
Baseline, post-injury and post-treatment values for non-noxious mechanical sensitivity were evaluated using 8 Semmes-Weinstein filaments (Stoelting, Wood Dale, Ill., USA) with varying stiffness (0.4, 0.7, 1.2, 2.0, 3.6, 5.5, 8.5, and 15 g) according to the up-down method. […] The mean and standard error of the mean (SEM) were determined for each paw in each treatment group. […]
Statistical analyses were conducted using Prism™ 4.01 (GraphPad, San Diego, Calif., USA). Mechanical hypersensitivity of the injured paw was determined by comparing pre-SNL to post-SNL values at Day 14. Data were analyzed using the Wilcoxon test. […] Drug effect was analyzed by comparing post-vehicle and post-drug values using the Friedman test followed by a Dunn's post hoc test. […]

The mark [11] stands for this setting: chronic 21-day study, 10-week old ZDF rats.
The mark [12] stands for this setting: 50, 100, 200 or 400 mg qd, 14 days.

Structures are written as SMILES. Like-named read-outs stand apart in the source and are kept apart here.

Usually EC50 stands for the concentration giving half of the maximal effect. For `CCOC(=O)[C@H](C)NP(=O)(N[C@@H](C)C(=O)OCC)c1ccc(-c2nc(N)sc2CC(C)C)o1` [CS-917], the EC50 in the data set on human hepatocytes [1] was 300 nM. In data set [2], the glucose tolerance result was “improved glucose tolerance” and the insulin secretion entry is listed as “No stimulation of insulin secretion”. Also, in the data set with ZDF rats (setting [11]), the glucose lowering entry was “effectively lowered glucose” and the “minimum efficacious dose, glucose lowering” value was 30 mg/kg. For the same compound, the oral efficacy result in the data set with ZDF rats (freely feeding and 6-h fasting ZDF rats, early and advanced disease states) was “good oral efficacy”. Also, the tolerability entry in [3] is “well tolerated with nausea seen at 400 mg and vomiting seen at 800 and 1000 mg”. Besides, the gluconeogenesis entry in the data set on gluconeogenesis was “inhibit gluconeogenesis”. The tolerability result in data set [4] is “well tolerated with no serious adverse events”. Besides, the plasma glucagons levels result in the data set on cynomolgus monkeys (60 mg/kg) is “increased”. Also, in the data set on cynomolgus monkeys (20 to 60 mg/kg, 3 h after administration), the insulin levels result was “dose-dependently decreased”. In the data set with Female ZDF rats, the “hyperglycemia (blood glucose)” value is 166 ± 24 mg/dL; the “insulin levels, blood lactate, liver glycogen and liver triglycerides” value is “largely unaffected”; the plasma triglycerides entry was “tended to be lowered”; the polydipsia is 15 ± 6.2 mL/day. The “AUC values of plasma glucose levels” value with overnight fasted rats is recorded as “significantly dose dependently decreased”. Besides, the plasma glucagons result in the data set with goto-kakizaki (GK) rats (40 mg/kg) is recorded as “increased”. The plasma glucose levels entry in the data set with goto-kakizaki (GK) rats (5 to 40 mg/kg, 3 h after administration) is “dose-dependently decreased”. Also, in the data set with goto-kakizaki (GK) rats (20 and 40 mg/kg, 4 h after administration), the “hepatic fructose 1,6-bisphosphate and fructose 6-phosphate” value was “increased”. For the same compound, the “lactic acid AUC compared with placebo” value in data set [5] (400 mg dose) is on record as “increased”. For the same compound, in data set [5] (setting [12]), the “absorption, metabolism, clearance” value was “rapidly absorbed, extensively metabolized, rapidly cleared” and the tolerability entry was “well tolerated with no serious adverse events”. Moreover, the lactic acid profiles result in data set [5] (other dose groups (50, 100, 200 mg)) is “indifferent from placebo”. The blood glucose levels entry with patients is on record as “lower blood glucose levels”.
With `COc1ccc(Cl)cc1C(=O)NCCc1ccc(S(=O)(=O)NC(=O)NC2CCCCC2)cc1` [glyburide], in data set [2], the glucose tolerance entry is “improved glucose tolerance” and the insulin secretion entry is listed as “positive insulin secretory response”.
In the case of `CC1CC(=O)C(CC2C=CC=CC2)C1=O` (centres unmarked) [NP-12], in the data set with Tet/GSK-3-beta mice, the “tau phosphorylation in the hippocampus” value was “dose-dependent significant decrease” and the clinical signs result is recorded as “not showing any apparent clinical signs”.
Turning to `O=C(N[C@@H](Cc1ccc(F)cc1)C(=O)N1CCC(O)CC1)c1cc2cc(Cl)ncc2[nH]1` [PSN-357], the t1/2 in data set [6] was 4 h. Further, the blood glucose levels entry in the data set with ob/ob mice (90 to 210 minutes post administration) is “reduced blood glucose levels”. Further, in the data set with ob/ob mice (after 5 h), the “increase in liver glycogen” value was 66%. Moreover, the “minimum effective dose, inhibition of glucagon-stimulated elevation of blood glucose” value in the data set with healthy conscious rats is on record as 3 mg/kg. Besides, in data set [7], the safety and tolerability entry is “safe and well tolerated”. Moreover, in the data set with human hepatocytes [8], the EC50 was 1100 nM. Besides, in the data set on db/db mice [9] (after 5 h), the “heart and skeletal muscle glycogen” value is “remained unaffected”; the liver glycogen entry is on record as “increase in liver glycogen”. Moreover, the “reduction of blood glucose” value in the data set with db/db mice [9] (maintained after 5 h) is recorded as 35%. Moreover, in the data set on rat hepatocytes, the EC50 was 1900 nM. In the data set on db/db mice [10], the hyperglycemia result was “prevented hyperglycemia”; the “increase in liver glycogen” value is recorded as 57%; the “muscle glycogen, plasma insulin or alanine aminotransferase” value was “no changes”. For the same compound, the “mechanical allodynia (von Frey, up-down method)” value with Male Sprague-Dawley rats is listed as “reduced mechanical allodynia”.
Take `Cn1sc(=O)n(Cc2ccccc2)c1=O` [NP-01139]: in the data set with Tet/GSK-3-beta mice, the “tau phosphorylation in the hippocampus” value was “dose-dependent significant decrease” and the clinical signs entry was “not showing any apparent clinical signs”.
